According to EP0550016A1, “Novel quinolone carboxylic acid derivatives and processes for preparing same” (KOREA RESEARCH INSTITUTE OF CHEMICAL TECHNOLOGY, priority 1991, dated 1993):
Values after ≈ are worked out from the molar mass of the structure shown.

Columns and labels:
Assay in all cases: In vitro anti-bacterial activity test (MIC, two-fold dilution method) against the standard strains
Type in all cases: cell-based
[1] = system: Pseudomonas aeruginosa 1771 M; conditions: Table 1 strain 15: Pseudomonas aeruginosa 1771 M
[2] = system: Staphylococcus aureus 285; conditions: Table 1 strain 5: Staphylococcus aureus 285; read-out: MIC
[3] = system: Klebsiella aerogenes 1082 E; conditions: Table 1 strain 17: Klebsiella aerogenes 1082 E
Escherichia coli OTEM = conditions: Table 1 strain 10: Escherichia coli OTEM
[4] = system: Klebsiella aerogenes 1522 E; conditions: Table 1 strain 18: Klebsiella aerogenes 1522 E
[5] = system: Pseudomonas aeruginosa 1592 E; conditions: Table 1 strain 13: Pseudomonas aeruginosa 1592 E
[6] = system: Pseudomonas aeruginosa 9027; conditions: Table 1 strain 12: Pseudomonas aeruginosa 9027
[7] = system: Enterobacter cloacae 1321 E; conditions: Table 1 strain 20: Enterobacter cloacae 1321 E
Salmonella typhimurium = conditions: Salmonella enterica; Table 1 strain 16: Salmonella typhimurium
Escherichia coli 1507 E = conditions: Table 1 strain 11: Escherichia coli 1507 E
[8] = system: Staphylococcus aureus 503; conditions: Table 1 strain 6: Staphylococcus aureus 503; read-out: MIC
Escherichia coli DC 0 [9] = conditions: DC0; Table 1 strain 7: Escherichia coli DC 0
[10] = system: Pseudomonas aeruginosa 1771; conditions: Table 1 strain 14: Pseudomonas aeruginosa 1771
[11] = system: Streptococcus faecium MD 8b; conditions: Enterococcus faecium, MD8B; Table 1 strain 3: Streptococcus faecium MD 8b; read-out: MIC
Escherichia coli DC 2 = conditions: DC2; Table 1 strain 9: Escherichia coli DC 2; read-out: MIC
[12] = system: Streptococcus pyogenes 77 A; conditions: Table 1 strain 2: Streptococcus pyogenes 77 A; read-out: MIC
Escherichia coli DC 0 [13] = conditions: DC0; Table 1 strain 8: Escherichia coli DC 0
[14] = system: Staphylococcus aureus SG 511; conditions: SG511; Table 1 strain 4: Staphylococcus aureus SG 511
[15] = system: Enterobacter cloacae P 99; conditions: P99; Table 1 strain 19: Enterobacter cloacae P 99
[16] = system: Streptococcus pyogenes 308 A; conditions: Table 1 strain 1: Streptococcus pyogenes 308 A

SMILES | MIC [1] | MIC [2] | MIC [3] | MIC (Escherichia coli OTEM) | MIC [4] | MIC [5] | MIC [6] | MIC [7] | MIC (Salmonella typhimurium) | MIC (Escherichia coli 1507 E) | MIC [8] | MIC (Escherichia coli DC 0 [9]) | MIC [10] | MIC [11] | MIC (Escherichia coli DC 2) | MIC [12] | MIC (Escherichia coli DC 0 [13]) | MIC [14] | MIC [15] | MIC [16]
NC1CC12CCCN(c1c(F)cc3c(=O)c(C(=O)O)cn(C4CC4)c3c1F)C2 (stereo not shown) [Example 16, 7-(1-amino-5-azaspiro[2,5]octane-5-yl)-1-cyclopropyl-6,8-difluoro-1,4-dihydro-4-oxoquinoline-3-carboxylic acid] | 0.781 µg/mL (≈ 2.01 µM) | 0.098 µg/mL (≈ 0.252 µM) | 0.013 µg/mL (≈ 0.0334 µM) | 0.098 µg/mL (≈ 0.252 µM) | 0.098 µg/mL (≈ 0.252 µM) | 3.12 µg/mL (≈ 8.03 µM) | 6.25 µg/mL (≈ 16.1 µM) | 0.049 µg/mL (≈ 0.126 µM) | 0.049 µg/mL (≈ 0.126 µM) | 0.098 µg/mL (≈ 0.252 µM) | 0.098 µg/mL (≈ 0.252 µM) | 0.049 µg/mL (≈ 0.126 µM) | 3.12 µg/mL (≈ 8.03 µM) | 0.391 µg/mL (≈ 1 µM) | 0.195 µg/mL (≈ 0.501 µM) | 0.391 µg/mL (≈ 1 µM) | 1.56 µg/mL (≈ 4.01 µM) | 0.098 µg/mL (≈ 0.252 µM) | 0.049 µg/mL (≈ 0.126 µM) | 0.781 µg/mL (≈ 2.01 µM)
CNC1CC12CCN(c1cc3c(cc1F)c(=O)c(C(=O)O)cn3C1CC1)C2 (stereo not shown) [Example 11, 7-(1-methylamino-5-azaspiro[2,4]heptane-5-yl)-1-cyclopropyl-6-fluoro-1,4-dihydro-4-oxoquinoline-3-carboxylic acid] | 0.781 µg/mL (≈ 2.1 µM) | 0.098 µg/mL (≈ 0.264 µM) | 0.004 µg/mL (≈ 0.0108 µM) | 0.098 µg/mL (≈ 0.264 µM) | 0.098 µg/mL (≈ 0.264 µM) | 3.12 µg/mL (≈ 8.41 µM) | 3.12 µg/mL (≈ 8.41 µM) | 0.049 µg/mL (≈ 0.132 µM) | 0.098 µg/mL (≈ 0.264 µM) | 0.098 µg/mL (≈ 0.264 µM) | 0.098 µg/mL (≈ 0.264 µM) | 0.049 µg/mL (≈ 0.132 µM) | 3.12 µg/mL (≈ 8.41 µM) | 0.781 µg/mL (≈ 2.1 µM) | 0.195 µg/mL (≈ 0.525 µM) | 0.781 µg/mL (≈ 2.1 µM) | 1.56 µg/mL (≈ 4.21 µM) | 0.098 µg/mL (≈ 0.264 µM) | 0.098 µg/mL (≈ 0.264 µM) | 0.781 µg/mL (≈ 2.1 µM)
NC1CC12CCN(c1cc3c(cc1F)c(=O)c(C(=O)O)cn3C1CC1)C2 (stereo not shown) [Example 5, 7-(1-amino-5-azaspiro[2,4]heptane-5-yl)-1-cyclopropyl-6-fluoro-1,4-dihydro-4-oxoquinoline-3-carboxylic acid] | 0.391 µg/mL (≈ 1.09 µM) | 0.098 µg/mL (≈ 0.274 µM) | 0.004 µg/mL (≈ 0.0112 µM) | 0.049 µg/mL (≈ 0.137 µM) | 0.049 µg/mL (≈ 0.137 µM) | 1.56 µg/mL (≈ 4.37 µM) | 1.56 µg/mL (≈ 4.37 µM) | 0.025 µg/mL (≈ 0.07 µM) | 0.049 µg/mL (≈ 0.137 µM) | 0.098 µg/mL (≈ 0.274 µM) | 0.098 µg/mL (≈ 0.274 µM) | 0.025 µg/mL (≈ 0.07 µM) | 1.56 µg/mL (≈ 4.37 µM) | 0.195 µg/mL (≈ 0.546 µM) | 0.098 µg/mL (≈ 0.274 µM) | 0.391 µg/mL (≈ 1.09 µM) | 0.781 µg/mL (≈ 2.19 µM) | 0.098 µg/mL (≈ 0.274 µM) | 0.049 µg/mL (≈ 0.137 µM) | 0.391 µg/mL (≈ 1.09 µM)
NC1CC12CCN(c1nc3c(cc1F)c(=O)c(C(=O)O)cn3C1CC1)C2 (stereo not shown) [Example 6, 7-(1-amino-5-azaspiro[2,4]heptane-5-yl)-1-cyclopropyl-6-fluoro-4-oxo-1,4-dihydro-1,8-naphthyridine-3-carboxylic acid] | 0.195 µg/mL (≈ 0.544 µM) | 0.049 µg/mL (≈ 0.137 µM) | 0.391 µg/mL (≈ 1.09 µM) | 0.025 µg/mL (≈ 0.0698 µM) | 0.025 µg/mL (≈ 0.0698 µM) | 1.56 µg/mL (≈ 4.36 µM) | 1.56 µg/mL (≈ 4.36 µM) | < 0.002 µg/mL | 0.025 µg/mL (≈ 0.0698 µM) | 0.025 µg/mL (≈ 0.0698 µM) | 0.049 µg/mL (≈ 0.137 µM) | < 0.002 µg/mL | 1.56 µg/mL (≈ 4.36 µM) | 0.195 µg/mL (≈ 0.544 µM) | 0.098 µg/mL (≈ 0.273 µM) | 0.195 µg/mL (≈ 0.544 µM) | 0.391 µg/mL (≈ 1.09 µM) | 0.049 µg/mL (≈ 0.137 µM) | 0.007 µg/mL (≈ 0.0195 µM) | 0.391 µg/mL (≈ 1.09 µM)
COc1c(N2CCC3(CC3N)C2)c(F)cc2c(=O)c(C(=O)O)cn(C3CC3)c12 (stereo not shown) [Example 19, 7-(1-amino-5-azaspiro[2,4]heptane-5-yl)-1-cyclopropyl-8-methoxy-6-fluoro-1,4-dihydro-4-oxoquinoline-3-carboxylic acid] | 0.391 µg/mL (≈ 1.01 µM) | 0.049 µg/mL (≈ 0.126 µM) | 0.007 µg/mL (≈ 0.0181 µM) | 0.049 µg/mL (≈ 0.126 µM) | 0.098 µg/mL (≈ 0.253 µM) | 1.56 µg/mL (≈ 4.03 µM) | 1.56 µg/mL (≈ 4.03 µM) | 0.025 µg/mL (≈ 0.0645 µM) | 0.049 µg/mL (≈ 0.126 µM) | 0.049 µg/mL (≈ 0.126 µM) | 0.025 µg/mL (≈ 0.0645 µM) | 0.025 µg/mL (≈ 0.0645 µM) | 1.56 µg/mL (≈ 4.03 µM) | 0.098 µg/mL (≈ 0.253 µM) | 0.049 µg/mL (≈ 0.126 µM) | 0.098 µg/mL (≈ 0.253 µM) | 0.391 µg/mL (≈ 1.01 µM) | 0.025 µg/mL (≈ 0.0645 µM) | 0.049 µg/mL (≈ 0.126 µM) | 0.195 µg/mL (≈ 0.503 µM)
